Measured values taken from patent publication US20250092050A1, “1-AMINOBENZO[4,5]IMIDAZO[1,2-A]PYRAZINE-3-FORMAMIDE COMPOUND, AND PREPARATION THEREFOR AND USE THEREOF” (SUN YAT-SEN UNIVERSITY, priority 2022, published 2025).
Read-outs that look alike come from different tables or passages of the source.

Target: adenosine A2A receptor (Homo sapiens, UniProt P29274)
Assay: Binding to the adenosine A2A receptor: displacement of radioligand [3H]-ZM241385 from membrane protein
Conditions: compound 10^-4 M, 1 nM [3H]-ZM241385
Protocol: The specific process was as follows: A membrane protein solution (60 μg/tube, containing ADA 2 mg/mL) and a radioligand 1 nM [3H]-ZM241385 were added to each tube. Different compounds with the concentration of 10^−4 M were added into the compound tubes respectively, shaken to mix uniformly, incubated at 37° C. for 30 minutes and the reaction was terminated in a water bath. Free and bound ligands were separated by suction filtration under negative pressure using GF/C glass fiber filter paper, washed three times with precooled 50 mM Tris-HCl, about 4 mL each time. Film was removed and placed upside down on the tray (i.e., with the grid side facing up), and baked for 3 minutes until dried. Dried small circular filter membrane was put into the liquid scintillation tube in sequence, and 2 mL of scintillation solution was added. [3H] count was then performed in a Multifunction Liquid Scintillation Counter. Each junction point was provided with triple tubes. and the average value was taken. Finally. data analysis was carried out to calculate the inhibition rate of the compound on the adenosine AzA receptor: […]

[1] = membrane protein 60 μg/tube, 37° C., 30 minutes, average of triple tubes, read-out: Adenosine A2A receptor inhibition rate
[2] = read-out: inhibition rate on adenosine A2A receptors (text summary of Table 1)

Sequence of adenosine A2A receptor (P29274 whole entry): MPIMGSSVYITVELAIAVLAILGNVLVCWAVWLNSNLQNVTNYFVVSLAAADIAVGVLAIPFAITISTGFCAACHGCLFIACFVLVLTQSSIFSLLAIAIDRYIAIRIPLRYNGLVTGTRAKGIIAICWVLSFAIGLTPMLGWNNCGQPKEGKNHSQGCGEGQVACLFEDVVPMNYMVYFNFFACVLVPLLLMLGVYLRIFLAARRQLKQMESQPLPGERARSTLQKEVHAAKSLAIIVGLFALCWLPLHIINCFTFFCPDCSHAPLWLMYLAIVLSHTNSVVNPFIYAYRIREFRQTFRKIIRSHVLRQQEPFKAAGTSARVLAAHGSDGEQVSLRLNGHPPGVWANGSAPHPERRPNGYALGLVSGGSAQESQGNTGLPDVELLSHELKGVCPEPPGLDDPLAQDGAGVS

SMILES: CCCCCNC(=O)c1cn2c(nc3ccccc32)c(N)n1 [Compound 14b]
- inhibition at 100 µM [1]: 71 ± 4.02%

SMILES: Nc1nc(C(=O)NCCO)cn2c1nc1ccccc12 [Compound 14f]
- inhibition at 100 µM [1]: 65.6 ± 4.23%

SMILES: CC(NC(=O)c1cn2c(nc3ccccc32)c(N)n1)c1ccccn1 (stereo not drawn) [Compound 14u]
- inhibition at 100 µM [1]: 86.5 ± 1.02%
- inhibition at 100 µM [2]: > 80%

SMILES: CC(NC(=O)c1cn2c(nc3ccccc32)c(N)n1)c1cccc2cccnc12 (stereo not drawn) [Compound 14v]
- inhibition at 100 µM [1]: 61.6 ± 3.91%

SMILES: CC(NC(=O)c1cn2c(nc3ccccc32)c(N)n1)c1cccc2cccnc12 (stereo not drawn) [Compound 14w]
- Adenosine A2A receptor inhibition rate (membrane protein 60 μg/tube, 37° C., 30 minutes, average of triple tubes): 78.27 ± 2.31%
- inhibition at 100 µM [2]: > 70%

SMILES: CC(C)(NC(=O)c1cn2c(nc3ccccc32)c(N)n1)c1ccccn1 [Compound 14x]
- inhibition at 100 µM [1]: 75.3 ± 4.07%
- inhibition at 100 µM [2]: > 70%
